Results as given in ChEMBL document CHEMBL3098064, “Sortase A inhibitory metabolites from the roots of Pulsatilla koreana” (Bioorg Med Chem Lett, 2014).

Assay: Inhibition of Streptococcus mutans OMZ65 recombinant sortase A delta-40 mutant using Dabcyl-QALPETGEE-Edans as substrate after 1 hr by fluorescence spectrophotometry
Molecule `CO[C@@H](Cc1ccc(O)cc1)C(=O)O` has an IC50 of over 100 µM. For `COc1cc(C[C@@H]2COC(=O)[C@@]2(Cc2ccc(O)c(OC)c2)O[C@@H]2O[C@H](CO)[C@@H](O)[C@H](O)[C@H]2O)ccc1O`, the IC50 was 41.2 µM. `O=C(/C=C/c1ccc(O)c(O)c1)O[C@@H](Cc1ccc(O)c(O)c1)C(=O)O` showed an IC50 of 20.1 µM. `COc1cc(/C=C/C(=O)O)ccc1O` [FERULATE] showed an IC50 of over 100 µM. In the case of `COc1cc([C@H]2Oc3c(OC)cc(CCCO)cc3[C@H]2CO)ccc1O`, the IC50 is reported as 35.9 µM. `COc1cc(C[C@H]2COC(=O)[C@@H]2Cc2ccc(O)c(OC)c2)ccc1O` [MATAIRESINOL] gave an IC50 of over 100 µM. For `COc1cc([C@H]2Oc3c(OC)cc(CCCO[C@@H]4O[C@H](CO)[C@@H](O)[C@H](O)[C@H]4O)cc3[C@H]2CO)ccc1O`, the IC50 was 37.3 µM. Para-Hydroxymercuribenzoic acid showed an IC50 of 35.1 µM. With `COc1cc([C@H]2Oc3c(OC)cc(CCCO)cc3[C@H]2CO[C@@H]2O[C@H](CO)[C@@H](O)[C@H](O)[C@H]2O)ccc1O` the IC50 was 82.8 µM. `O=C(/C=C/c1ccc(O)c(O)c1)O[C@H](C(=O)O)[C@@H](OC(=O)/C=C/c1ccc(O)c(O)c1)C(=O)O` showed an IC50 of 60 µM. For `COc1cc(C[C@@H]2COC(=O)[C@]2(O)Cc2ccc(O)c(OC)c2)ccc1O`, the IC50 was over 100 µM. `O=C(O)/C=C/c1ccc(O)c(O)c1` [CAFFEIC ACID] showed an IC50 of 20.2 µM. In the case of `COc1cc([C@@H]2OC[C@@H]3[C@H]2CO[C@H]3c2ccc(O)c(OC)c2)ccc1O` [(+)-PINORESINOL], the IC50 is reported as 67.7 µM.
